Laboratory results taken from patent US9173392B2, “Emulsifiable concentrate” (priority 2010, dated 2015).

How the values were obtained:
[1] = Active component solubility in solvents at 10° C. and 54° C. (visual, HPLC for undissolved samples); conditions: for miscible in the Solvent 1 up to: active component in Solvent 1 (Examples 1-3); for Approximate Percent (%) Solubility Determination of Active Components in Solvents (Malathion At 10° C.) / Approximate Percent (%) Solubility Determination of Active Components in Solvents (Malathion At 54° C.): 20 g Malathion in 10 g solvent; for Approximate Percent (%) Solubility Determination of Active Components in Solvents (Malathion At 10° C.) / Approximate Percent (%) Solubility Determination of Active Components in Solvents (Metolachlor At 10° C.): about two weeks at 10° C.; for Approximate Percent (%) Solubility Determination of Active Components in Solvents (Malathion At 10° C.) / Approximate Percent (%) Solubility Determination of Active Components in Solvents (Malathion At 54° C.) / Approximate Percent (%) Solubility Determination of Active Components in Solvents (Metolachlor At 10° C.) / Approximate Percent (%) Solubility Determination of Active Components in Solvents (Metolachlor At 54° C.): totally soluble = no particles visually detectable; for Approximate Percent (%) Solubility Determination of Active Components in Solvents (Malathion At 54° C.) / Approximate Percent (%) Solubility Determination of Active Components in Solvents (Metolachlor At 54° C.): about two weeks at 54° C.; for Approximate Percent (%) Solubility Determination of Active Components in Solvents (Metolachlor At 10° C.) / Approximate Percent (%) Solubility Determination of Active Components in Solvents (Metolachlor At 54° C.): 20 g Metolachlor in 10 g solvent
[2] = Determination of VOC content (percentage weight loss of solvent aliquot on heating); type: physicochemical; conditions: 10 mg aliquot, furnace 35° C. raised 5° C. per minute, held isothermally at 115° C.
Procedure: A series of solvents are evaluated to determine a content of volatile organic compounds (VOCs) and suitability for use in this invention. More specifically, the 1,2-cyclohexanedicarboxylic acid diisononyl ester (Hexamoll® Dinch) of this invention is evaluated as Solvent 1. Twelve additional comparative solvents (Comparative Solvents 1-12) are also evaluated.
After addition of the aliquots to the pans, the pans are placed in a furnace at 35° C. The temperature of the furnace is then raised at a rate of 5° C. per minute and held isothermally at 115° C. When mass loss stabilizes at less than 0.5% for 5 minutes, the temperature is then held at 115° C. for an additional 15 minutes. Total run times average about 80 minutes. The results of the VOC content evaluations are set forth in Table 1 below wherein all values represent percentage weight loss of the aliquot and correlate to approximate VOC content.

Row | Compound | miscible in the Solvent 1 up to [1] | % Total Weight Loss = VOC Content [2] [%] | Approximate Percent (%) Solubility Determination of Active Components in Solvents (Malathion At 10° C.) [1] | Approximate Percent (%) Solubility Determination of Active Components in Solvents (Malathion At 54° C.) [1] | Approximate Percent (%) Solubility Determination of Active Components in Solvents (Metolachlor At 10° C.) [1] | Approximate Percent (%) Solubility Determination of Active Components in Solvents (Metolachlor At 54° C.) [1]
1 | CCc1cccc(C)c1N(C(=O)CCl)C(C)COC (stereo not shown) [Metolachlor] | approximately 66 weight percent | – | – | – | – | –
2 | CC(O)CO (stereo not shown) [Comparative Solvent 7, propylene glycol] | – | 100 | Totally Soluble | Totally Soluble | Totally Soluble | Totally Soluble
3 | COC(=O)CCCCC(=O)OC [Comparative Solvent 10, dimethyl adipate] | – | 100 | Totally Soluble | Totally Soluble | Totally Soluble | Totally Soluble
4 | CCOC(=O)CC(SP(=S)(OC)OC)C(=O)OCC (stereo not shown) [Malathion] | approximately 66 weight percent | – | – | – | – | –
5 | CC1COC(=O)O1 (stereo not shown) [Comparative Solvent 5, propylene carbonate] | – | 100 | Totally Soluble | Totally Soluble | Totally Soluble | Totally Soluble
6 | CC(C)CCCCCCOC(=O)C1CCCCC1C(=O)OCCCCCCC(C)C (stereo not shown) [Solvent 1, 1,2-cyclohexanedicarboxylic acid diisononyl ester] | – | 0.33 | Totally Soluble | Totally Soluble | Totally Soluble | Totally Soluble
